Consider two compounds from patent publication US20110321198A1, “POLYPEPTIDE HAVING FUNCTION FOR DELAYING ANTHESIS OR SUPPRESSING GROWTH, POLYNUCLEOTIDE ENCODING THE SAME, AND USE THEREOF” (priority 2009, published 2011).

Entries after “also recorded” stand apart in the source; their conditions may differ.

For test [1], the system named is Arabidopsis thaliana wild-type (Col). Put plainly: Germination efficiency under paclobutrazol treatment, wild-type. The format is in vivo. To be noted: FIG. 10. The source says:
(§1) It is generally known that GA is involved in germination as well as hypocotyl growth as shown in Example 5. Hypocotyl growth or adult heights are associated with cell elongation. Typically, GA, auxin and brassinosteroid […] are involved in cell elongation while plant hormones such as GA and ABA are responsible for germination. As for the response to GA, its molecular mechanisms are different for different phenomena. Thus, in order to support the fact that the delayed flowering and/or dwarfism phenotype is attributed to the deficient response of sil1-1D to GA, the wild-type (Col) and sil1-1D were treated with paclobutrazol (PAC), which inhibits the biosynthesis of GA, and their germination efficiencies were compared. […] Generally, when GA biosynthesis was inhibited by PAC, germination efficiency was lowered, with a lowered response to GA.

Test [2] relates to sil1-1D mutant. Put plainly: Germination efficiency under paclobutrazol treatment, sil1-1D mutant. The format is in vivo, Arabidopsis thaliana. The settings on record: FIG. 10.
Description: as §1

The test system of test [3] is Arabidopsis thaliana wild-type (Col). The experiment in a line: Hypocotyl length response to GA, wild-type. The format is in vivo. To be noted: various concentrations of GA, white light, FIG. 9. How it is done:
(§2) In most cases, these phenomena occur when the plant becomes low in GA response or GA biosynthesis level. Thus, the response of sil1-1D to GA was examined. In this regard, hypocotyl lengths of 15 plantlets were measured after they were grown in ½ Gamborg B5 media (Duchefa) containing 1% sucrose and various concentrations of GA under white light.

For test [4], the system named is sil1-1D mutant. Put plainly: Hypocotyl length response to GA, sil1-1D mutant. The settings on record: various concentrations of GA, white light, compared to wild-type, FIG. 9. The test is classed as in vivo, Arabidopsis thaliana. The method, then: as §2

With `CC(C)(C)[C@@H](O)[C@@H](Cc1ccc(Cl)cc1)n1cncn1` (racemic) [PAC, paclobutrazol], the germination in test [1] (wild-type (Col), 0.35 mg/L PAC) is on record as around 100%; in the test on sil1-1D mutant [2] (0.35 mg/L PAC), “about 50%”. Besides, the germination efficiency result in test [1] (wild-type, increasing PAC concentration) is “decreased with increasing of PAC concentration”; in the test on sil1-1D mutant [2] (increasing PAC concentration), “decreased with increasing of PAC concentration”.
Regarding gibberellin [GA], the hypocotyl growth entry in test [3] was “increased with increasing of GA concentration”; in the test on sil1-1D mutant [4], “short hypocotyls in response to GA; also recorded: significantly reduced”.
